Where a name gives a salt, the structure may show the parent alone. Read-outs that look alike come from different tables or passages of the source.
What was measured:
[1] = Non-caloric sugar solubility in water and 95% ethanol
Experimental: In this experiment, the following sugars were compared for solubility: rubusoside, dulcoside A, rebaudioside B, dulcoside B, and rebaudioside D. Approximately 5.0 mg of each sugar was attempted to be dissolved in 0.6 mL water and vortexed for 2 minutes at room temperature.
In another experiment, 50 mg stevia was dissolved in either 2.0 mL water or 2.0 mL 95% ethanol.

[2] = cited from earlier work
[3] = Source text: After solubilizing the sugar and the compound in ethanol or aqueous ethanol, the ethanol is evaporated for example under a high rotary vacuum. The powder resulting from the evaporation step is then resolubilized (dissolved) in water. Another solvent can be methanol at 80% methanol, 95% (ACS grade) or greater (to 100% methanol) as well as combinations of methanol and ethanol or methanol and water. After solubilizing the sugar and the compound in ethanol or aqueous ethanol, the ethanol is evaporated for example under a high rotary vacuum. The powder resulting from the evaporation step is then resolubilized (dissolved) in water.
Generally, ingredients are deposited into a sealed container with ethanol and vortex-mixed to form a solution. The solution is subjected to centrifugation. The ethanol is evaporated off and the dried mixture was dissolved in water. This mixture is centrifuged again and the supernatant is filtered through a membrane. […] In one embodiment, the admixing process involves dissolving the PSD and sugar in the ethanol while stirring and adjusting the pH as necessary to obtain complete dissolution and a clear reaction mixture. The reaction mixture can then be dried to remove the ethanol. No further water washing or filtering is needed.
In this example, an oven-dried single-neck RB flask equipped with a magnetic stir bar was used. […] The reaction mixture was vigorously stirred at room temperature for 30 min at 20° C. […] The white solid was dried using vacuum drying performed at room temperature and a high vacuum pump for about one hour to remove the ethanol (EtOH) completely using an Edvards Model #RV8 […], a Heidolph type Basis Hei-VAP Value, No. 560-00000-0101. The high vacuum pump was connected to a cooling trap and the trap was connected to the RB flask. Vacuum strength was about 1 mm Hg.
The white foamy solid was dried over a high vacuum at room temperature for an additional hour to remove the water completely, by ascertaining changes in weight loss. Drying continued until further weight loss was not observed.
Step 1: In an oven-dried single neck RB flask equipped with magnetic stir and septa (flask cap), 5 mg sildenafil (0.01054 mmol) and 16.95 mg stevioside (1:2 molar ratio) were weighed into the RB flask and dissolved in 85% ethanol (˜2.0 mL, denatured 85% ethanol) at ambient temperature. The reaction mixture was vigorously stirred at room temperature for 30 min. […] The white solid was dried over a high vacuum for an hour to remove the ethanol completely (no further reduction in weight was observed).
Step 2: The obtained white solid was then dissolved in 2.0 mL water at room temperature in an RB flask with a magnetic stir bar. The reaction mixture was stirred at ambient temperature for 30 min. […] The white foamy solid was dried over a high vacuum at room temperature for an additional hour to remove the water completely. The weight of the flask was checked while drying until no further weight loss was observed.

[4] = cited from earlier work; remark: listed apart in the source
[5] = approximately 5.0 mg in 0.6 mL water, vortexed 2 minutes, room temperature

Compound: OC[C@H]1O[C@H](O[C@]2(CCl)O[C@H](CCl)[C@@H](O)[C@@H]2O)[C@H](O)[C@@H](O)[C@H]1Cl [sucralose, 1,6-dichloro-1,6-dideoxy-β-D-fructofuranosyl-4-chloro-4-deoxy-α-D-galactopyranoside]
- solubility of the sugar in 95% ethanol (observation) ([1]; 50 mg in 2.0 mL 95% ethanol): slowly soluble
- time to dissolve in 95% ethanol ([1]; 50 mg in 2.0 mL 95% ethanol, room temperature): 2 h
- solubility of the sugar in water (observation) ([1]; 50 mg in 2.0 mL water): soluble
- Sugar Solubility in 95% EtOH ([2]; at 20° C.): 283 g/L at 20 °C
- Sugar Solubility in Water ([2]; at 20° C.): 110 g/L at 20 °C

Compound: C[C@]12C=CC(=O)C=C1CC[C@@H]1[C@@H]2C(=O)C[C@@]2(C)[C@H]1CC[C@]2(O)C(=O)CO [prednisone]
- appearance of the dried powder re-dissolved in 2 mL deionized water ([3]; Example 23, rubusoside 50 mg : prednisone 5 mg): white turbid mixture

Compound: C=C1C[C@@]23CC[C@H]4[C@@](C)(CCC[C@@]4(C)C(=O)O[C@@H]4O[C@H](CO)[C@@H](O)[C@H](O)[C@H]4O)[C@@H]2CC[C@]1(O[C@@H]1O[C@H](CO)[C@@H](O)[C@H](O[C@@H]2O[C@H](CO)[C@@H](O)[C@H](O)[C@H]2O)[C@H]1O[C@@H]1O[C@H](CO)[C@@H](O)[C@H](O)[C@H]1O)C3 [rebaudioside A]
- solubility of the sugar in 95% ethanol (observation) ([1]; 50 mg in 2.0 mL 95% ethanol): either insoluble or partially soluble
- solubility of the sugar in water (observation) ([1]; 50 mg in 2.0 mL water): soluble
- Sugar Solubility in 95% EtOH [2]: Poorly soluble
- Sugar Solubility in Water [2]: Poorly soluble

Compound: C=C1C[C@@]23CC[C@H]4[C@@](C)(CCC[C@@]4(C)C(=O)O[C@@H]4O[C@H](CO)[C@@H](O)[C@H](O)[C@H]4O)[C@@H]2CC[C@]1(O[C@@H]1O[C@H](CO)[C@@H](O)[C@H](O)[C@H]1O[C@@H]1O[C@H](CO)[C@@H](O)[C@H](O)[C@H]1O)C3 [Stevioside]
- Sugar Solubility in 95% EtOH [2]: 30 mg/mL
- Sugar Solubility in Water [2]: 4 g/L

Compound: CCCc1nc(C)c2c(=O)[nH]c(-c3cc(S(=O)(=O)N4CCN(CC)CC4)ccc3OCC)nn12 [Vardenafil HCl]
- solubility of the complex in water by NMR [3]: 100%
- solubility in DMSO ([4]; at 28° C., solids remain present at 22° C.): soluble
- solubility in chloroform [4]: insoluble

Compound: C=C1C[C@@]23CC[C@H]4[C@@](C)(CCC[C@@]4(C)C(=O)O[C@@H]4O[C@H](CO)[C@@H](O)[C@H](O)[C@H]4O)[C@@H]2CC[C@]1(O[C@@H]1O[C@H](CO)[C@@H](O)[C@H](O[C@@H]2O[C@H](CO)[C@@H](O)[C@H](O)[C@H]2O)[C@H]1O[C@@H]1O[C@@H](C)[C@H](O)[C@@H](O)[C@H]1O)C3 [dulcoside B]
- solubility of the sugar in water (observation) [1, 5]: partially soluble
- Sugar Solubility in 95% EtOH [2]: Slightly soluble
- Sugar Solubility in Water [2]: Partly soluble

Compound: dulcoside A
- solubility of the sugar in water (observation) [1, 5]: partially soluble
- Sugar Solubility in 95% EtOH [2]: Partly soluble
- Sugar Solubility in Water [2]: 2.28 g/L

Compound: COc1ccc(CN=c2[nH]c(N3CCC[C@H]3CO)ncc2C(=O)NCc2ncccn2)cc1Cl [Avanafil, 4-[(3-chloro-4-methoxyphenyl)methylamino]-2-[(2S)-2-(hydroxymethyl)pyrrolidin-1-yl]-N-(pyrimidin-2-ylmethyl)pyrimidine-5-carboxamide]
- solubility in water by NMR [3]: 100%
- solubility in DMSO ([4]; at 25° C.): Soluble in DMSO (97 mg/ml
- solubility in DMSO [4]: soluble

Compound: OC[C@H]1O[C@@](CO)(O[C@H]2O[C@H](CO)[C@@H](O)[C@H](O)[C@H]2O)[C@@H](O)[C@@H]1O [sucrose]
- Sugar Solubility in 95% EtOH [2]: Insoluble
- Sugar Solubility in Water [2]: 204 g/100 g water

Compound: CN1CC(=O)N2[C@H](c3ccc4c(c3)OCO4)c3[nH]c4ccccc4c3C[C@@H]2C1=O [Tadalafil, (2R,8R)-2-(1,3-benzodioxol-5-yl)-6-methyl-3,6,17-triazatetracyclo[8.7.0.0^3, 8.0^11, 16]heptadeca-1(10),11,13,15-tetraene-4,7-dione]
- improvement in water solubility [3]: ~2.3%
- appearance of the dried gel in water ([3]; Example 31, Tadalafil:Tween 80 1:5 molar, after 3 minutes): white and turbid solution
- appearance of the dried mixture in 3 mL water ([3]; Example 31, tadalafil:P188:stevioside 1:10:5 molar): white turbid solution
- appearance of the dried mixture in water ([3]; Example 31, tadalafil:P-188 1:10): turbid solution
- appearance of the dried mixture in 2.0 mL water ([3]; Example 31, tadalafil:Tween 20 1:5 molar): white turbid solution with solids still visible
- appearance of the dried mixture in 3.0 mL water ([3]; Example 31, tadalafil:glycerol:stevioside 1:20:5): white turbid solution
- low-intensity drug peaks by NMR ([3]; Example 31, tadalafil:glycerol:stevioside 1:20:5, 10 mg citric acid monohydrate, pH about 3.0): 2-3%
- appearance of the dried mixture in 3.0 mL water ([3]; Example 31, tadalafil:glycerol:stevioside 1:30:5, citric acid, pH about 3.0): white turbid
- appearance of the dried mixture in water ([3]; Example 31, tadalafil:stevioside 1:3 molar, citric acid in step 1): white turbid solution
- appearance of the dried powder in 2 mL water ([3]; Example 31, tadalafil:stevioside 1:10 molar, buffer pH 9.4 added in water): white turbid solution
- appearance of the dried mixture in water ([3]; Example 31, tadalafil:stevioside 1:10 molar, carbonate buffer pH 9.4 in step 1): white and turbid
- solubility of the complex in water ([3]; pH 2.5): not 100% soluble
- solubility in water ([4]; at 25° C.): 220 mg/L at 25 °C in water
- solubility in chloroform [4]: soluble

Compound: Nc1nc2c(ncn2COCCO)c(=O)[nH]1 [Acyclovir]
- water solubility ([4]; drug alone): less than 1 mg/mL

Compound: CCCc1nc(C)c2c(=O)[nH]c(-c3cc(S(=O)(=O)N4CCN(CC)CC4)ccc3OCC)nn12 [Vardenafil, 2-[2-ethoxy-5-(4-ethylpiperazin-1-yl)sulfonylphenyl]-5-methyl-7-propyl-3H-imidazo[5,1-f][1,2,4]triazin-4-one]
- solubility in water ([4]; at 25° C., Estimated): 3.5 mg/L at 25° C./

Compound: CC1(C)S[C@@H]2[C@H](NC(=O)COc3ccccc3)C(=O)N2[C@H]1C(=O)O [Penicillin V HCl, phenoxymethylpenicillinic acid]
- Solubility In 95% Ethanol, With Rubusoside (table of Example 25) [3]: Soluble
- Solubility In Water after first being dissolved in EtOH, With Rubusoside (table of Example 25) [3]: Soluble
- Solubility In Water, With Rubusoside (table of Example 25) [3]: Soluble
- Solubility of Penicillin V HCl In Ethanol, With Rubusoside [3]: Soluble
- Solubility of Penicillin V HCl In Water after first being dissolved in EtOH, With Rubusoside [3]: Soluble
- Solubility of Penicillin V HCl In Water, With Rubusoside [3]: Soluble
- Solubility of Penicillin V HCl In Ethanol, Without Rubusoside ([4]; Example 24): Soluble
- Solubility of Penicillin V HCl In Water, Without Rubusoside ([4]; Example 24): 0.636 mg/mL or at
- Solubility of Penicillin V HCl In Water, Without Rubusoside ([4]; Example 24, pH 1.8 acidified with HCl): HCl at 24 mg/100 mL
- Solubility In Water, Without Rubusoside (table of Example 25) ([4]; Example 25 (acyclovir and rubusoside), at 55° C.): 1 mg/mL at 55 °C
- Solubility In Water, Without Rubusoside (table of Example 25) ([4]; Example 25 (acyclovir and rubusoside), at pH 1.8): 24 mg/100 mL at
- Solubility In 95% Ethanol, Without Rubusoside (table of Example 25) ([4]; Example 25 (acyclovir and rubusoside)): Soluble

Compound: CCCCC[C@H](O)/C=C/[C@H]1[C@H](O)CC(=O)[C@@H]1CCCCCCC(=O)O [Alprostadil, (1R,2R,3R)-3-Hydroxy-2-[(E)-(3S)-3-hydroxy-1-octenyl]-5-oxocyclopentane heptanoic acid]
- solubility of the complex in water by NMR [3]: 100%
- solubility in DMSO [4]: soluble
- solubility in distilled water ([4]; distilled water): 8000 μg per 100 mL
- solubility in water ([4]; drug alone): insoluble
- water solubility ([4]; drug alone): less than 1 mg/mL
- solubility in ethanol, ether and ethyl acetate ([4]; printed over two lines: nearly / insoluble): insoluble in ethanol, ether

Compound: C[C@]12CC[C@H]3[C@@H](CCC4=CC(=O)CC[C@@]43C)[C@@H]1CC[C@@H]2OC(=O)CCC1CCCC1 [testosterone cypionate]
- appearance of the dried mixture dissolved in water ([3]; rubusoside 23.4 mg : testosterone cypionate 5 mg (3:1 sugar-to-drug)): white turbid solution
- appearance of the dried powder in 2 mL water ([3]; testosterone cypionate:stevioside 1:10 molar): white-turbid solution

Compound: CCCOc1ccc(S(=O)(=O)NCCC2CCCN2C)cc1-c1nc2c(CCC)nn(C)c2c(=O)[nH]1 (stereo not shown) [Udenafil]
- solubility in DMSO [4]: soluble
- water solubility ([4]; drug alone): about 0.0798 mg/mL

Compound: CC(=O)O[C@H]1C(=O)[C@@]2(C)[C@H]([C@H](OC(=O)c3ccccc3)[C@]3(O)C[C@H](OC(=O)[C@H](O)[C@@H](NC(=O)c4ccccc4)c4ccccc4)C(C)=C1C3(C)C)[C@]1(OC(C)=O)CO[C@@H]1C[C@@H]2O [Paclitaxel]
- Solubility of Paclitaxel In Ethanol, With Rubusoside [3]: Soluble
- Solubility of Paclitaxel In Water after first being dissolved in EtOH, With Rubusoside [3]: Insoluble
- Solubility of Paclitaxel In Water, With Rubusoside [3]: Insoluble

From patent US12115222B2, “Compositions and methods for improving the solubility of erectile dysfunction therapeutics” (Villya LLC, priority 2023, dated 2024)
